Structures can show the parent of a compound that is named as a salt.
Columns and labels:
[1] = test system: serum nanobacteria; experiment: Antibiotic sensitivity test of serum nanobacteria with cell culture antibiotics; assay type: cell-based; details: 100 µg/ml, one month, medium containing 10% fetal bovine serum
Description: Nanobacteria were cultured with 10% fetal bovine serum in DMEM medium (serum nanobacteria) for one month at 37°C in an atmosphere of 5% CO2 - 95% air. The cultures were harvested by centrifugation. For the autoclaving, UV, microwave, heating and drying treatments, the harvested nanobacteria were suspended in phosphate buffered saline (pH 7.4; PBS). After treatments, subculturing of the nanobacteria was made in 10% gamma irradiated fetal bovine serum in DMEM medium. The growth of serum nanobacteria was followed by light microscopy and absorbance measurement with a spectrophotometer at 650 nm.
The 1× concentrations are those recommended for cell culture. […]

[2] = test system: nanobacteria; experiment: Antibiotic sensitivity test by Minimal Inhibition Concentration (MIC), 96-well plates, absorbance at 650 nm; assay type: cell-based; details: for MIC 50: 50% inhibition; for MIC 50 / MIC 90: DMEM with 10% gamma-irradiated FBS; for antinanobacterial effect in the in vitro test (in words): in vitro MIC test
Description: Antibiotic sensitivity tests were carried out by measuring Minimal Inhibition Concentration (MIC), a common practice in clinical microbiology.
The tests were performed in 96-well plates. DMEM (commercial cell culture medium) containing 10% gamma-irradiated fetal bovine serum (FBS)(dose about 3 Mrads; this treatment inactivates nanobacteria in the serum so that the basic medium is sterile) was used as the basic culture medium. These components are commercially available, e.g., from Gibco. The antibiotic stock solutions were sterile filtered through 0.2 micrometer filters. The stock solutions were then serially diluted (into the basal culture medium) to provide a final starting concentration of 0.5 mg/ml and 1:2 dilutions therefrom, unless otherwise specified. For each antibiotic three parallel tests were performed using all the antibiotic dilutions and, additionally, positive and negative control experiments. […] 100 µl of dilutions of the nanobacteria inoculum were added to all wells except the negative controls. The plates were incubated at mammalian cell culture conditions (37° Celsius, 5% carbon dioxide, 95% humid air). The absorbance values at 650 nm were recorded by using an ELISA reader at the start, and at 4, 8, 12, 14 days. […] Calculations were based on absorbance curves where absorbance was plotted against concentration of the antibiotic.

[3] = test system: nanobacteria; experiment: as above; assay type: cell-based; details: culture medium, 37° Celsius
[4] = test system: nanobacteria; experiment: Treatment of human patients infected with nanobacteria; details: person with chronic fatigue syndrome; 500 mg 4 times per day for one month; after one month therapy
[5] = test system: nanobacteria; details: Kajander et al. 1997; cited from earlier work
[6] = test system: nanobacteria; experiment: Nanobacterial growth and biofilm formation on stents with metal ions in the culture medium; assay type: cell-based; details: salts added to the culture medium
From the text: Nanobacteria also absorb some heavy metals. Nanobacteria can be stained well with silver or copper compounds. […] Silver and copper parts or platings on surfaces, such as catheters or stents, can provide an antinanobacterial effect by preventing nanobacterial biofilm formation. In in vitro tests nanobacteria avidly formed biofilm on two different commercial stents made of a plastic type of material. This biofilm formation was prevented by the addition of silver or copper salts to the culture medium.

[7] = 90% inhibition, 12 day time point

Row | Molecule | MIC 50 ([2]; 12 day time point) [mg/L] | MIC 90 [2, 7] [mg/L] | antinanobacterial effect in the in vitro test (in words) [2] | also measured
1 | Gentamycin | 60 | 250 | bacteriostatic effects at high antibiotic concentrations | morphology of nanobacteria in SEM [1]: changes in the morphology
2 | Doxycycline | 50 | 80 | effective on inhibiting nanobacterial growth | stability under the test conditions [3]: not stable
3 | CN(C)[C@@H]1C(O)=C(C(N)=O)C(=O)[C@@]2(O)C(O)=C3C(=O)c4c(O)cccc4[C@@](C)(O)[C@H]3C[C@@H]12 [tetracycline HCl] | – | – | – | nanobacteria status of the patient (urine and serum samples) [4]: nanobacteria negative
4 | O=C(O)CN(CCN(CC(=O)O)CC(=O)O)CC(=O)O [EDTA, ethylenediaminetetraacetic acid] | – | – | antinanobacterial effects | IC90 ([2]; 288 h, 90% inhibition, 12 day time point, read-out: MIC 90): 2.5 mM; IC50 ([2]; 288 h, read-out: MIC 50): 300 µM; effect on growth of nanobacteria [5]: inhibts growth
5 | [Cu] [copper] | – | – | – | biofilm formation on commercial stents [6]: prevented
